Laboratory results from US7910752B2, “Anticancer compound, intermediate therefor, and processes for producing these” (Taheebo Japan Co., Ltd., priority 2005, dated 2011).
Where two headings read alike, the source gives them in different places.

What was measured:
Format in all cases: cell-based
[1] = tested on: PC-3 cells (Prostate cancer cells); test: Antitumor activity against PC-3 cells (1), viable cell count; conditions: Homo sapiens, PC-3, 72 h
Procedure: (§1) PC-3 cells (manufactured by Department of Laboratory Products of Dainippon Pharm. Co. Ltd.) are preliminarily seeded in 35 mm petri dishes containing Dulbecco's modified Eagle medium (DMEM) containing 20% of fetal bovine serum (FBS) in a concentration of 1×10^5/ml. The resulting cells are incubated at 36° C. for 1 day under 5% CO2, and cells are confirmed to be stuck at the bottom of the petri dishes. The resulting PC-3 cells are divided into […], to the first group of which is added (±)-2-(1-hydroxyethyl)-5-hydroxynaphtho[2,3-b]furan-4,9-dione (racemate) in concentrations of 0.5 mM, 0.05 mM and 0.005 mM, and to the second group of which is added adriamycin (Wakenyaku Co. Ltd.) as a control in concentrations of 0.5 mM, 0.05 mM and 0.005 mM. These groups are incubated at 36° C. for 3 days, and viable cells are counted and viability is calculated.

[2] = tested on: Human Intestinal Normal Cells (Cell Systems IE Cells); test: Cytotoxicity assay for human intestinal normal cells, trypan blue; conditions: 3 days
Procedure: (§2) Each human normal cells are preliminarily seeded in 35 mm petri dishes containing Dulbecco's modified Eagle medium (DMEM) containing 20% of fetal bovine serum (FBS) in a concentration of 1×10^5/ml. The resulting cells are incubated at 36° C. for 1 day under 5% CO2, and cells are confirmed to be stuck at the bottom of the petri dishes. A racemate, α-isomer and β-isomer are each dissolved in DMSO to give solutions in concentrations of 0.5 mM, 0.05 mM, 0.005 mM and 0.0005 mM, 2 μL each of which are added to each cells. The resulting cells are incubated at 36° C. for 3 days, and viable cells are counted by using 0.25% trypan blue and viabilities are calculated. A commercially-available anticancer agent mitomycin is also examined as a control in the test against human skin normal cells, and the results are also shown in TABLE 6.

[3] = tested on: MCF-7 cells (Breast cancer cells); test: Antitumor activity against MCF-7 cells, viable cell count; conditions: Homo sapiens, MCF7, 72 h
Procedure: (§3) PC-3 cells obtained in a similar manner in the above (1) are divided into three groups, to the first group of which is added (±)-2-(1-hydroxyethyl)-5-hydroxynaphtho[2,3-b]furan-4,9-dione (racemate) in concentrations of 0.5 mM, 0.05 mM, 0.005 mM and 0.0005 mM, to the second group of which is added an unnatural type 2-(1-hydroxyethyl)-5-hydroxynaphtho[2,3-b]furan-4,9-dione (α-isomer) in concentrations of 0.5 mM, 0.05 mM, 0.005 mM and 0.0005 mM, to the third group of which is added a natural type 2-(1-hydroxyethyl)-5-hydroxynaphtho[2,3-b]furan-4,9-dione (β-isomer) in concentrations of 0.5 mM, 0.05 mM, 0.005 mM and 0.0005 mM, and to the fourth group of which is added mitomycin as a control in concentrations of 0.5 mM, 0.05 mM, 0.005 mM and 0.0005 mM. These groups are incubated at 36° C. for 3 days, and viable cells are counted and viability is calculated.
Antitumor activity is examined on MCF-7 cells in a similar manner as in the above (2).

[4] = tested on: Human Hepatic Normal Cells (Cell Systems Hc Cells); test: Cytotoxicity assay for human hepatic normal cells, trypan blue; conditions: 3 days
Procedure: as §2

PC-3 cells = test: Antitumor activity against PC-3 cells (2), viable cell count; conditions: Homo sapiens
Procedure: as §1, §3

[5] = tested on: Human Skin Normal Cells (Cell System Fb cells); test: Cytotoxicity assay for human skin normal cells, trypan blue; conditions: for Viability %: human skin normal cells, 3 days
Procedure: as §2

[6] = tested on: Human Lung Normal Cells (MRC-5); test: Cytotoxicity assay for human lung normal cells, trypan blue; conditions: 3 days
Procedure: as §2

[7] = tested on: A-549 cells (Lung cancer cells); test: Antitumor activity against A-549 cells, viable cell count; conditions: Homo sapiens, A549, 72 h
Procedure: as §3
Antitumor activity is examined on A-549 cells in a similar manner as in the above (2).

Structure (SMILES)	Viability % ([2]; 0.0005 mM)	Viability % ([2]; 0.005 mM)	Viability % ([2]; 0.05 mM)	Viability % ([2]; 0.5 mM)	viability at 0.5 µM [3]	viability at 5 µM [3]	viability at 50 µM [3]	viability at 500 µM [3]	Viability % ([4]; 0.0005 mM)	Viability % ([4]; 0.005 mM)	Viability % ([4]; 0.05 mM)	Viability % ([4]; 0.5 mM)	viability at 0.5 µM (PC-3 cells; PC-3, 72 h)	viability at 5 µM (PC-3 cells; PC-3, 72 h)	viability at 50 µM (PC-3 cells; PC-3, 72 h)	viability at 500 µM (PC-3 cells; PC-3, 72 h)	Viability % ([5]; 0.0005 mM)	Viability % ([5]; 0.005 mM)	Viability % ([5]; 0.05 mM)	Viability % ([5]; 0.5 mM)	other results
CC(O)c1cc2c(o1)C(=O)c1cccc(O)c1C2=O (racemic) [Racemate, (±)-2-(1-hydroxyethyl)-5-hydroxynaphtho[2,3-b]furan-4,9-dione]	100%	80%	60%	40%	90%	50%	20%	0%	100%	80%	60%	30%	50%	30%	0%	0%	100%	80%	50%	20%	viability at 5 µM [1]: 50%; viability at 50 µM [1]: 0%; viability at 500 µM [1]: 0%; Viability % ([6]; 0.0005 mM): 100%; Viability % ([6]; 0.005 mM): 80%; Viability % ([6]; 0.05 mM): 60%; Viability % ([6]; 0.5 mM): 30%; viability at 0.5 µM [7]: 70%; viability at 5 µM [7]: 50%; viability at 50 µM [7]: 10%; viability at 500 µM [7]: 0%
CC(O)c1cc2c(o1)C(=O)c1cccc(O)c1C2=O (single isomer, unassigned; isomer 2) [α-Isomer, 2-(1-hydroxyethyl)-5-hydroxynaphtho[2,3-b]furan-4,9-dione]	100%	80%	60%	40%	90%	60%	30%	0%	100%	70%	40%	20%	60%	30%	0%	0%	100%	70%	40%	30%	Viability % ([6]; 0.0005 mM): 100%; Viability % ([6]; 0.005 mM): 80%; Viability % ([6]; 0.05 mM): 50%; Viability % ([6]; 0.5 mM): 30%; viability at 0.5 µM [7]: 70%; viability at 5 µM [7]: 40%; viability at 50 µM [7]: 10%; viability at 500 µM [7]: 0%
CC(O)c1cc2c(o1)C(=O)c1cccc(O)c1C2=O (single isomer, unassigned; isomer 2) [β-Isomer, 2-(1-hydroxyethyl)-5-hydroxynaphtho[2,3-b]furan-4,9-dione]	100%	70%	50%	30%	70%	50%	20%	0%	100%	50%	20%	10%	40%	10%	0%	0%	100%	50%	20%	10%	Viability % ([6]; 0.0005 mM): 100%; Viability % ([6]; 0.005 mM): 70%; Viability % ([6]; 0.05 mM): 40%; Viability % ([6]; 0.5 mM): 20%; viability at 0.5 µM [7]: 60%; viability at 5 µM [7]: 30%; viability at 50 µM [7]: 10%; viability at 500 µM [7]: 0%
COc1cccc2c1C(=O)c1c(O)c3c(c(O)c1C2=O)C[C@@](O)(C(=O)CO)C[C@@H]3O[C@H]1C[C@H](N)[C@H](O)[C@H](C)O1 [Adriamycin, adriamycin, reference compound]																					viability at 5 µM [1]: 42%; viability at 50 µM [1]: 0%; viability at 500 µM [1]: 0%
CO[C@@]12[C@H](COC(N)=O)C3=C(C(=O)C(C)=C(N)C3=O)N1C[C@@H]1N[C@@H]12 [Mitomycin, mitomycin, reference compound]																	60%	30%	0%	0%	viability at 0.5 µM ([3]; MCF-7 cells, 0.0005 mM, 3 days, read-out: Viability %): 60%; viability at 5 µM ([3]; MCF-7 cells, 0.005 mM, 3 days, read-out: Viability %): 30%; viability at 50 µM ([3]; MCF-7 cells, 0.05 mM, 3 days, read-out: Viability %): 10%; viability at 500 µM ([3]; MCF-7 cells, 0.5 mM, 3 days, read-out: Viability %): 0%; viability at 0.5 µM (PC-3 cells; 72 h, PC-3 cells, 0.0005 mM, 3 days, read-out: Viability %): 40%; viability at 5 µM (PC-3 cells; 72 h, PC-3 cells, 0.005 mM, 3 days, read-out: Viability %): 10%; viability at 50 µM (PC-3 cells; 72 h, PC-3 cells, 0.05 mM, 3 days, read-out: Viability %): 0%; viability at 500 µM (PC-3 cells; 72 h, PC-3 cells, 0.5 mM, 3 days, read-out: Viability %): 0%; toxicity to normal cells ([5]; summary in words of TABLE 6): very strong toxicity; viability at 0.5 µM ([7]; A-549 cells, 0.0005 mM, 3 days, read-out: Viability %): 50%; viability at 5 µM ([7]; A-549 cells, 0.005 mM, 3 days, read-out: Viability %): 10%; viability at 50 µM ([7]; A-549 cells, 0.05 mM, 3 days, read-out: Viability %): 0%; viability at 500 µM ([7]; A-549 cells, 0.5 mM, 3 days, read-out: Viability %): 0%
